The structures appear in SMILES notation.

Usually melting point stands for the temperature, or range, at which the solid turns liquid.

`N#Cc1cc(C(=O)O)ccc1Cl` had a melting point of 180 °C.

Take `CC(C)C[C@H](N)C(=O)N[C@@H](CC1CCCCC1)[C@@H](O)c1ccccn1`: the melting point fell in the range of 98 to 100 °C.

The compound `O=C(O)CCCc1ccc(C(NS(=O)(=O)c2ccc(Cl)cc2)C2CCCCC2)cc1` (single isomer, unassigned; (+)) registered a melting point of 165 to 166 °C.

With `Cc1c(Cl)cc(C(C)C)c(-c2c(C(C)C)cc(Cl)c(C)c2O)c1O`, the melting point was 98 °C.

Take `COC(=O)c1cccc(OCc2ccc(Cl)c(Cl)c2)c1`: the melting point lay in the range of 87 to 88 °C.

`OC(c1ccccc1)C(NCc1ccco1)c1ccccc1` (stereo not given): the melting point is 141 to 144 °C.

Take `CC(C)(C)c1ccc(S(=O)(=O)N2c3ccc(F)cc3CC2C(=O)NCCc2ccccc2)cc1` (stereo not given): the melting point was in the range of 168 to 172 °C.

In turn, `CC(C)(C)c1nc(-c2nnc(NC(=N)N)s2)nc(C(C)(C)C)c1O` registered a melting point of 277 °C.

Compound `CN1CCC(N(C)C(=O)c2ccc(Nc3nccc(Nc4ccc(C(F)(F)F)cc4)n3)cc2)CC1` showed a melting point of 238 to 244 °C.

In the case of `CCc1c(CC(O)N2CCN(c3cc(C)ccn3)CC2)c2cccc3c2n1CCC3` (stereo not given), the melting point amounted to 60 °C.

Take `Cc1cccc(C(O)CNC(=C[N+](=O)[O-])NCCSCc2cc(C)c(CN(C)C)s2)c1` (stereo not given): the melting point was in the range of 88 to 89 °C.

Consider `COc1ccc(/C=C/S(=O)(=O)CS(=O)(=O)/C=C/c2ccc(O)c(OC)c2)cc1N`, for which the melting point was in the range of 148 to 150 °C.

In turn, `O=C(NCc1csc(C(F)(F)F)n1)c1ccnc(N2CCN(Cc3ccc(F)cc3)C2=O)c1` registered a melting point of 66 to 68 °C.

In turn, `CCOCCCC(NC=O)C1(c2ccc(Cl)cc2)CCC1` (stereo not given) gave a melting point of 58 to 59 °C.

In the case of `COc1cc(OCc2ccc(C(=O)N(C)C3CCCCC3)cc2)cc(OC)c1OC`, the melting point came out at 116 °C.

For the compound `CCOc1ccc(C2=NN(C3CCOCC3)C(=O)[C@H]3CC=CC[C@@H]23)cc1OCC` (relative stereo), the melting point is 127 to 129 °C.

Compound `CCOc1nn(-c2ccc(C(F)(F)F)cn2)cc1CCCOc1cccc(CC(=O)O)c1F` gave a melting point of 120 to 121 °C.

As for `COc1cc(Cc2cnc(NCCSCc3csc(CN(C)C)n3)[nH]c2=O)ccn1`, the melting point is 79 to 80 °C.

In turn, `CC(C)(C)OC(=O)CON=C(C(=O)O)c1cccc(NC=O)n1` showed a melting point of 162 to 168 °C.

With `CC(C)(C)C(=O)Nc1ccncc1-c1noc2ccccc12`, the melting point is 137 to 138 °C.

Take `CC1=C(C(=O)OCC2CCCO2)C(c2cccc([N+](=O)[O-])c2)C(C(=O)OCC2CCCO2)=C(C)N1` (stereo not given): the melting point was 122 to 123 °C.

In turn, `C=CCn1cc(C(O)(c2ccc3c(cnn3C(=O)NCC)c2)C(F)(F)F)c2ccccc21` (stereo not given) registered a melting point of 162 to 164 °C.

In turn, `C=CCc1cn(C(c2ccccc2)(c2ccccc2)c2ccccc2)c(F)n1` gave a melting point of 136 to 138 °C.

Consider `Nc1nc2c(ncn2COCCCO)c(=O)[nH]1`, for which the melting point was found to be 223 °C.

For `CCc1nn(C2CCCC2)c2c1CCNC2=O`, the melting point fell in the range of 152 to 153 °C.

Regarding `Cc1c(C2=NNC(=O)SC2C)ccc2c1C(C)(C)C(=O)N2` (stereo not given), the melting point was 279 °C.

`CC(=O)OCC(OC(C)=O)C1OC(OC(C)=O)(C(=O)O)CC(OC(C)=O)C1OC(C)=O` (stereo not given) came in with a melting point of 132 to 133 °C.

`N#Cc1ccc(C(=C2CCCC2)c2ncc[nH]2)cc1` had a melting point of 108 to 110 °C.

On to `CCc1nc(Cl)c2c(-c3ccc([N+](=O)[O-])o3)nn(C)c2n1`, for which the melting point came to 165 °C.

Turning to `CCc1cccc2oc(C(=O)Nc3ccc(-c4ccc(S(=O)(=O)NC(C(=O)OC)C(C)C)cc4)cc3)c(C)c12` (stereo not given), the melting point is 183 to 185 °C.

Take `Cc1cc(Cl)ccc1N=CN(C)SN(Cc1ccccc1)Cc1ccccc1`: the melting point is 97 to 99 °C.

`CCOC(=O)C1=C(C)NC(c2csc(C)n2)=NC1c1ccc(F)cc1Cl` (stereo not given) registered a melting point of 123 to 125 °C.

As to `CN1C(=O)SC(C)(S(=O)(=O)c2cccc3c(Br)cccc23)C1=O` (stereo not given), the melting point lay within 160 to 161 °C.

As to `C[C@H](NC(=O)c1c[nH]c2ncc(-c3cn(-c4cccc(C(F)(F)F)c4)cn3)nc12)C(C)(C)C`, the melting point fell in the range of 332 to 333 °C.

Compound `O=c1c2ccccc2[nH]n1Cc1cccc2ccccc12` came in with a melting point of 198 to 200 °C.

As for `CCC(CC)Nc1nc(Cc2cc(OC)c(OC)c(OC)c2)nc2sc(C#N)c(C)c12`, the melting point is 127 to 129 °C.

As to `CS(=O)(=O)c1ccc(-c2ccc(C(F)F)n2-c2ccc(F)cc2)cc1`, the melting point lay within 111 to 112 °C.

With `O=C(O)C1CCCN2CC(CS)C(=O)N12` (stereo not given), the melting point lay in the range of 146 to 147 °C.

As to `COC(=O)C12Cc3cc(Cl)ccc3C1=NN(C(=O)N(C)c1ccc(OC(F)(F)F)cc1)CO2` (stereo not given), the melting point lay in the range of 130 to 131 °C.

The compound `CCCN(CCC)[C@H]1Cc2c[nH]c3ccc(-c4ccno4)c(c23)C1` yielded a melting point of 126 to 127 °C.

`NC(=O)N(O)Cc1cc(-c2ccc(Cl)cc2)n(-c2ccc(S(N)(=O)=O)cc2)n1` gave a melting point of 216 to 218 °C.

`CC(O)=C(C#N)C(=O)Oc1ccc(Cl)cc1` registered a melting point of 97 to 100 °C.

`c1cc(OCCCCc2nnn[nH]2)cc(OCc2ccc3ccccc3n2)c1` displayed a melting point of 120 to 130 °C.

The compound `Cc1c(NC(=O)c2ccc(OCCCCF)cc2F)ccc2cc(CN3CCCC3)cnc12` displayed a melting point of 140 °C.

The compound `NS(=O)(=O)c1cc(N(CCCl)CCCl)c([N+](=O)[O-])cc1[N+](=O)[O-]` came in with a melting point of 153 to 154 °C.

With `O=c1c(CCO)cnc2c3ccccc3ccn12`, the melting point was in the range of 185 to 187 °C.

`CC(C)(C)c1csc(-c2nc(Cl)c(Cl)[nH]2)n1`: the melting point is 157 to 158 °C.

In the case of `c1ccc2cc(OC3CCC4(CCNCC4)CC3)ccc2c1`, the melting point lay within 132 to 134 °C.

For the compound `CCNC(=S)NNC(=O)OC`, the melting point worked out at 117 °C.

As to `CN(C)C[C@H]1CC[C@H](CCNc2ncc(Br)cn2)CC1`, the melting point was 108 to 110 °C.

The compound `COc1ccc(S(N)(=O)=O)cc1CC(C)=O` came in with a melting point of 138 to 139 °C.

Compound `Brc1cn(C(c2ccccc2)(c2ccccc2)c2ccccc2)nc1-c1ccccc1` displayed a melting point of 181 to 183 °C.

Take `COC(=O)c1ccccc1S(=O)(=O)NC(=O)Nc1nc(C)cc(OC)n1`: the melting point is 173 to 179 °C.

`O=[N+]([O-])c1sc2ccc(Cl)cc2c1Br` returned a melting point of 176 to 178 °C.

In the case of `CCOC(=O)CC(=O)c1cc(F)c(F)cc1F`, the melting point fell in the range of 57 to 59 °C.

For `COC(=O)c1cccc(Cn2c(=O)c(=O)n(Cc3cccc(C(=O)O)c3)c3ccc([N+](=O)[O-])cc32)c1`, the melting point fell in the range of 238 to 240 °C.

`COC(=O)C1(CC(N)=O)C(=O)N(C)C(=O)c2ccc(Cl)cc21` (stereo not given) gave a melting point of 220 to 222 °C.

Compound `Cc1cc2cc(CN3CCC(CCCC(=O)N4CCCCC4)CC3)cnc2cc1NC(=O)c1ccc(-c2ccc(F)cc2)cc1` yielded a melting point of 179 °C.

`COC(=O)c1cc(-n2c(Cl)nc(C(F)(F)F)cc2=O)c(F)cc1Cl` gave a melting point of 89 to 91 °C.

In turn, `CC(Br)C(Br)C(=O)NC(=O)Nc1ccc(Cl)c(Cl)c1` (stereo not given) came in with a melting point of 196 to 197 °C.

Compound `CC(=O)c1ccc(Nc2nnc(Cc3ccncc3)c3ccccc23)cc1O` came in with a melting point of 234 to 236 °C.

`CCc1nccc(NC(=O)Cc2ccc(Oc3ccc([N+](=O)[O-])cn3)cc2)c1Cl` registered a melting point of 128 to 131 °C.

Turning to `CCCCCC(=O)C=CC1=C(CCC(=O)O)C(=O)CC1O` (stereo not given), the melting point worked out at 57 °C.

`CC(C)c1cc(C(=O)Nc2ccc(C(=O)O)cc2)[nH]c1C(C)C`: the melting point was determined as 230 °C.

In turn, `CCCC(=O)OC1CC(n2cc(CC)c(=O)[nH]c2=O)OC1CNC(=O)Cc1c(Cl)cccc1Cl` (stereo not given) showed a melting point of 130 to 132 °C.

Compound `Clc1c[nH]nc1-c1cc(Br)cc(Br)c1` gave a melting point of 188 °C.

Take `CCOCc1cnc2c(NC(=O)c3c(Cl)cccc3Cl)cccc2c1Cl`: the melting point was 121 to 123 °C.

On to `C=CCN(C)c1c(C=NO)c(=O)n(C)c(=O)n1C`, for which the melting point fell in the range of 95.5 to 97.1 °C.

Turning to `O=S(=O)(N[C@@H]1c2ccccc2CCC[C@H]1O)c1ccccc1` (relative stereo), the melting point came out at 128 °C.

Turning to `Cc1cc(Nc2ccnc(Nc3ccc(S(=O)(=O)N(C)C4CCN(Cc5nccs5)CC4)cc3)n2)ccc1F`, the melting point fell in the range of 176 to 177 °C.

The compound `O=C(c1sc(-c2nc3ccccc3[nH]2)nc1-c1ccco1)C1CCOCC1` returned a melting point of 250 to 251 °C.

The compound `CCn1cccc(C2c3cc(C(=O)OC)ccc3OC(C)(C)C2O)c1=O` (stereo not given) had a melting point of 120 °C.

As to `Nc1c(CC(=O)O)cccc1S(=O)(=O)c1ccc(Cl)cc1`, the melting point was 139 to 141 °C.

`O=C(c1ccc(Cl)cc1)c1cccc(NC(=O)c2ccn3c2CSC3c2cccnc2)c1` (stereo not given) had a melting point of 176 °C.

As to `COc1ccccc1CN(CC(=O)OC(C)(C)C)S(=O)(=O)c1ccc2c(Cl)cnc(Cl)c2c1`, the melting point was in the range of 106 to 108 °C.

In turn, `Cc1c(C)c(N2CCN(C(=O)OC(C)(C)C)CC2)c(C)c2c1OC(C)(C)C2N1CCCC1` (stereo not given) had a melting point of 127 to 128 °C.

For the compound `CC(C)(C)OC(=O)Nc1cc(CO)c(C#Cc2ccc(F)cc2)cc1[N+](=O)[O-]`, the melting point was found to be 198 °C.

On to `OC(c1ccccc1)c1ccccc1Cl` (stereo not given), for which the melting point is 61 to 63 °C.

Consider `CCOC(=O)c1cn(-c2ccc([N+](=O)[O-])cc2)cn1`, for which the melting point was 198 to 200 °C.

The compound `CCOc1cc(C(CS(C)(=O)=O)N2C(=O)c3cccc(NS(C)(=O)=O)c3C2=O)ccc1OC` (stereo not given) returned a melting point of 191 to 193 °C.

Take `Oc1ccc2c(c1)SCCc1c-2n(CCCCCN2CCCCC2)c2ccc(O)cc12`: the melting point fell in the range of 195 to 196 °C.

The compound `CC(C)OC(=O)C1=C(c2cccc([N+](=O)[O-])c2)N2C(=O)N(C)NC2=NC1C` (stereo not given) came in with a melting point of 255 to 256 °C.

The compound `O=C(N[C@@H]1CN[C@H]2CCO[C@H]21)C(F)(F)F` (relative stereo) showed a melting point of 106 to 110 °C.

In turn, `COC(=O)C1=Cc2cccc(C=O)c2OCC1` showed a melting point of 122 to 124 °C.

With `CCCCCC1=NN(C(=O)NC2C3CC4CC(C3)CC2C4)CC1c1ccccc1` (stereo not given), the melting point turned out to be 71 °C.
